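Interpolation was linear, between the two tested concentrations surrounding the appropriate level; five concentrations were tested over 48 hours in 96-well plates. The concentration for 50% growth inhibition is given as GI50.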 Calls of active or inactive are those of the source. Rule as the data show it: active = GI50 up to about 1.1 µM and inactive = higher.
Experiments:
Assay in all cases: NCI tumour cell line growth inhibition, 48 h
[1] = test system: SK-MEL-5
[2] = test system: SNB-75
[3] = test system: Hs-578T
[4] = test system: SK-MEL-28
[5] = test system: OVCAR-4
[6] = test system: PC-3
[7] = test system: OVCAR-5
[8] = test system: A498
[9] = test system: MOLT-4
[10] = test system: CAKI-1
[11] = test system: Malme-3M
[12] = test system: HCT-15
[13] = test system: M14
[14] = test system: OVCAR-3
[15] = test system: HCT-116
[16] = test system: HCC 2998
[17] = test system: RXF 393
[18] = test system: NCI-H23
[19] = test system: IGROV-1
[20] = test system: SNB-19
[21] = test system: UACC-257
[22] = test system: OVCAR-8
[23] = test system: SK-OV-3
[24] = test system: SF-295
[25] = test system: 786-0
[26] = test system: A549
[27] = test system: SF-268
[28] = test system: MDA-MB-435
[29] = test system: COLO 205
[30] = test system: TK-10
[31] = test system: HT-29
[32] = test system: SW-620
[33] = test system: NCI-H522
[34] = test system: U-251
[35] = test system: UACC-62
[36] = test system: UO-31
[37] = test system: EKVX
[38] = test system: HOP-92
[39] = test system: NCI-H460
[40] = test system: MDA-MB-231
[41] = test system: HOP-62
[42] = test system: KM12
[43] = test system: DU-145
[44] = test system: NCI/ADR-RES
[45] = test system: ACHN
[46] = test system: BT-549
[47] = test system: MDA-N
[48] = test system: SK-MEL-2
[49] = test system: MCF7
[50] = test system: K562
[51] = test system: RPMI-8226
[52] = test system: SR
[53] = test system: T47D
[54] = test system: LOX IMVI
[55] = test system: NCI-H226
[56] = test system: SF-539
[57] = test system: HL-60
[58] = test system: SN12C
[59] = test system: CCRF-CEM

CCCCN1CCC(O)(c2cc(C(=O)O)[nH]c2-c2cc(C)no2)C1=O (centres undefined)
GI50 [1]: > 100 µM (inactive) | GI50 [2]: 49.9 µM (inactive) | GI50 [3]: > 100 µM (inactive) | GI50 [4]: > 100 µM (inactive) | GI50 [5]: > 100 µM (inactive) | GI50 [6]: > 100 µM (inactive) | GI50 [7]: > 100 µM (inactive) | GI50 [8]: > 100 µM (inactive) | GI50 [9]: > 100 µM (inactive) | GI50 [10]: > 100 µM (inactive) | GI50 [11]: > 100 µM (inactive) | GI50 [12]: > 100 µM | GI50 [13]: > 100 µM (inactive) | GI50 [14]: > 100 µM (inactive) | GI50 [15]: > 100 µM (inactive) | GI50 [16]: > 100 µM (inactive) | GI50 [17]: 43.5 µM (inactive) | GI50 [18]: > 100 µM (inactive) | GI50 [19]: > 100 µM (inactive) | GI50 [20]: > 100 µM (inactive) | GI50 [21]: > 100 µM (inactive) | GI50 [22]: > 100 µM (inactive) | GI50 [23]: > 100 µM (inactive) | GI50 [24]: > 100 µM (inactive) | GI50 [25]: > 100 µM (inactive) | GI50 [26]: > 100 µM (inactive) | GI50 [27]: > 100 µM (inactive) | GI50 [28]: > 100 µM (inactive) | GI50 [29]: > 100 µM (inactive) | GI50 [30]: > 100 µM (inactive) | GI50 [31]: > 100 µM (inactive) | GI50 [32]: > 100 µM (inactive) | GI50 [33]: > 100 µM (inactive) | GI50 [34]: > 100 µM (inactive) | GI50 [35]: > 100 µM (inactive) | GI50 [36]: > 100 µM (inactive) | GI50 [37]: > 100 µM (inactive) | GI50 [38]: > 100 µM (inactive) | GI50 [39]: > 100 µM (inactive) | GI50 [40]: > 100 µM (inactive) | GI50 [41]: > 100 µM (inactive) | GI50 [42]: > 100 µM (inactive) | GI50 [43]: > 100 µM (inactive) | GI50 [44]: > 100 µM (inactive) | GI50 [45]: > 100 µM (inactive) | GI50 [46]: > 100 µM (inactive) | GI50 [47]: > 100 µM (inactive) | GI50 [48]: > 100 µM (inactive) | GI50 [49]: > 100 µM (inactive) | GI50 [50]: > 100 µM (inactive) | GI50 [51]: > 100 µM (inactive)

CC1(C)OC(=O)C(C)(C)C(=O)O1
GI50 [1]: > 100 µM (inactive) | GI50 [52]: > 100 µM (inactive) | GI50 [2]: > 100 µM (inactive) | GI50 [3]: > 100 µM (inactive) | GI50 [4]: > 100 µM (inactive) | GI50 [5]: > 100 µM (inactive) | GI50 [53]: > 100 µM (inactive) | GI50 [6]: > 100 µM (inactive) | GI50 [7]: > 100 µM (inactive) | GI50 [9]: > 100 µM (inactive) | GI50 [54]: > 100 µM (inactive) | GI50 [10]: > 100 µM (inactive) | GI50 [11]: > 100 µM (inactive) | GI50 [12]: > 100 µM | GI50 [13]: > 100 µM (inactive) | GI50 [15]: > 100 µM (inactive) | GI50 [16]: > 100 µM (inactive) | GI50 [18]: > 100 µM (inactive) | GI50 [19]: > 100 µM (inactive) | GI50 [20]: > 100 µM (inactive) | GI50 [21]: > 100 µM (inactive) | GI50 [22]: > 100 µM (inactive) | GI50 [23]: > 100 µM (inactive) | GI50 [24]: > 100 µM (inactive) | GI50 [25]: > 100 µM (inactive) | GI50 [26]: > 100 µM (inactive) | GI50 [27]: > 100 µM (inactive) | GI50 [29]: > 100 µM (inactive) | GI50 [30]: > 100 µM (inactive) | GI50 [31]: > 100 µM (inactive) | GI50 [32]: > 100 µM (inactive) | GI50 [33]: > 100 µM (inactive) | GI50 [55]: > 100 µM (inactive) | GI50 [34]: > 100 µM (inactive) | GI50 [35]: > 100 µM (inactive) | GI50 [56]: > 100 µM (inactive) | GI50 [36]: > 100 µM (inactive) | GI50 [37]: > 100 µM (inactive) | GI50 [57]: > 10 µM (inactive) | GI50 [39]: > 100 µM (inactive) | GI50 [40]: > 100 µM (inactive) | GI50 [41]: > 100 µM (inactive) | GI50 [58]: > 100 µM (inactive) | GI50 [42]: > 100 µM (inactive) | GI50 [43]: > 100 µM (inactive) | GI50 [44]: > 100 µM (inactive) | GI50 [45]: > 100 µM (inactive) | GI50 [46]: > 100 µM (inactive) | GI50 [47]: > 100 µM (inactive) | GI50 [48]: > 100 µM (inactive) | GI50 [59]: > 100 µM (inactive) | GI50 [49]: > 100 µM (inactive) | GI50 [50]: > 100 µM (inactive)

— ChEMBL document CHEMBL1201862, “PubChem BioAssay data set” (2004)
